Patent US20260000736A1, “PURIFIED LACTOFERRIN COMPOSITIONS AND METHODS OF USE” (Lactea Therapeutics LLC, priority 2023, published 2026)
Where a SMILES comes first, the peptide text is derived from it. Bridges are numbered along the chain shown (N, C = ends). [ ]: non-standard residue; d: D form. The star is where a group is joined. Ileψ(thiazoline)Cys = CC[C@H](C)[C@H](N)C1=N[C@H](C(=O)*)CS1; dOrn = NCCC[C@@H](N)C(=O)O

How the values were obtained:
SARS-CoV-2 = SARS-CoV-2 Cytopathic Effect (CPE) reduction assay in Vero E6 cells; format: cell-based; conditions: Severe acute respiratory syndrome coronavirus 2, Vero C1008, 72 h
[1] = test system: pigs with dermatome wounds; assay: Pig dermatome wound healing model; format: in vivo; conditions: dermatome wounds 40×40 mm at a depth of 0.76 mm, topical treatment
Procedure: In a first assessment in a pig model setting, using a dermatome, six wounds were made on each pig with three on the left side and three on the right side of each pig covering a surface area of 40×40 mm at a depth of 0.76 mm. […] For each pig, the wounds on the left of the animal were treated while the wounds on the right wide were left as untreated controls. […] Standard of care was advised on by veterinarians with experience in dealing with wound management in a farm setting.

Compound	EC50 (SARS-CoV-2) [µM]	wound healing [1]
CCC(CC)COC(=O)[C@H](C)N[P@](=O)(OC[C@H]1O[C@@](C#N)(c2ccc3c(N)ncnn23)[C@H](O)[C@@H]1O)Oc1ccccc1 [Remdesivir, reference compound]	4.5	–
CC[C@H](C)[C@H](N)C1=N[C@H](C(=O)N[C@@H](CC(C)C)C(=O)N[C@H](CCC(=O)O)C(=O)N[C@H](C(=O)N[C@H]2CCCCNC(=O)[C@H](CC(N)=O)NC(=O)[C@@H](CC(=O)O)NC(=O)[C@H](Cc3cnc[nH]3)NC(=O)[C@@H](Cc3ccccc3)NC(=O)[C@H]([C@@H](C)CC)NC(=O)[C@@H](CCCN)NC2=O)[C@@H](C)CC)CS1 [bacitracin, reference compound] ({Ileψ(thiazoline)Cys}-L[dE]IK[dOrn]I[dF]H[dD]N; lactam 4-C)	–	treated wounds were still open after one week
